Measured values reported in patent US4871740A, “Glycyrrhetic acid derivatives and use thereof” (Sanwa Kagaku Kenkyusho Co., Ltd., priority 1986, dated 1989).
Where a name gives a salt, the structure may show the parent alone.

Columns and labels:
stress ulcer in rats = assay: Action to stress ulcer in rats (restraint and water immersion); format: in vivo, Male Wister rats; details: Rattus norvegicus, po, 30 minutes before restraint, inhibition ratio, read-out: Ulcer Index (%)
Method: (Action to stress ulcer in rats)
Male Wister rats weighing about 180 g (age: 6 weeks) were used for this experiment.
Ten rats in each group were deprived of food for 24 hours before the experiment. They were immobilized in a restraint cage and immersed for 7 hours to the height of the xiphoid in a water bath kept at 23±1°C. After inflation with 10 ml of 1% formalin, the isolated stomach was opened along the greater curvature. The ulcer index (UI) was determined as the sum of the length (mm) of each erosion per rat. Each of the compounds to be tested was suspended in 5% gum arabic solution and given orally 30 minutes before restraint. Control animals received the same solution without any drug or the test compound.
(§1) Inhibition ratio is expressed as follows. [formula]

gastric necrosis in rats = assay: Action to gastric necrosis in rats (absolute ethanol); format: in vivo, Male Sprague-Dewley rats; details: po, 1 hour before absolute ethanol, inhibition ratio
Method: (Action to gastric necrosis in rats)
Male Sprague-Dewley rats weighing about 250 g were used for this experiment.
Ten rats in each group were deprived of food for 24 hours before the experiment. Each of the compounds to be tested was suspended in 5% gum arabic solution and given orally to the test animal. After 1 hours from the administration of the compound. 1 ml of absolute ethanol was administered orally and the animals were killed 1 hour later from the ethanol administration. After inflation with 10 ml of 1% formalin, the isolated stomach was opened along the greater curvature. The ulcer index (UI) was determined as the sum of the length (mm) of each erosion per rat. […]. Control animals received the same solution without any drug or the test compound.
as §1

| SMILES | inhibition in vivo at 12.5 mg/kg (stress ulcer in rats) | inhibition in vivo at 25 mg/kg (stress ulcer in rats) | inhibition in vivo at 50 mg/kg (stress ulcer in rats) | Ulcer Index (%) (gastric necrosis in rats; 25 mg/kg) | Ulcer Index (%) (gastric necrosis in rats; 50 mg/kg) | Ulcer Index (%) (gastric necrosis in rats; 100 mg/kg) | inhibition in vivo at 100 mg/kg (stress ulcer in rats) |
| --- | --- | --- | --- | --- | --- | --- | --- |
| CC(C)=CCCC(C)=CCCC(C)=CCOC(=O)[C@@]1(C)CC[C@]2(C)CC[C@]3(C)C(=CC[C@@H]4[C@@]5(C)CC[C@H](OC(=O)/C=C\C(=O)O)C(C)(C)[C@@H]5CC[C@]43C)[C@@H]2C1 [Compound 4h] | 8% | 6.1% | 35.7% | – | – | – | – |
| CC(C)=CCCC(C)=CCCC(C)=CCCC(C)=CCCC(C)=CCCC(C)=CCCC(C)=CCCC(C)=CCCC(C)=CCSCCNC(=O)C1(C)CCC2(C)CCC3(C)C(=CCC4C5(C)CCC(OC(=O)C=CC(=O)O)C(C)(C)C5CCC43C)C2C1 (stereo not shown) [Compound 4d] | 33.9% | 55.4% | 42.1% | 31.7% | 20.6% | 39.2% | 56.2% |
| COc1ccccc1N1CCN(C(=O)[C@@]2(C)CC[C@]3(C)CC[C@]4(C)C(=CC[C@@H]5[C@@]6(C)CC[C@H](O)C(C)(C)[C@@H]6CC[C@]54C)[C@@H]3C2)CC1 [Compound 2i, 1-(3β-hydroxy-18β-olean-12-en-30-oyl)-4-(o-methoxyphenyl)piperazine] | – | -18% | 4.9% | – | – | – | 46.4% |
| CC(C)=CCCC(C)=CCCC(C)=CCN1CCN(C(=O)[C@@]2(C)CC[C@]3(C)CC[C@]4(C)C(=CC[C@@H]5[C@@]6(C)CC[C@H](OC(=O)/C=C\C(=O)O)C(C)(C)[C@@H]6CC[C@]54C)[C@@H]3C2)CC1 [Compound 4g] | 11.7% | 22.5% | 21.6% | – | – | – | – |
| COc1ccccc1N1CCN(C(=O)[C@@]2(C)CC[C@]3(C)CC[C@]4(C)C(=CC(=O)[C@@H]5[C@@]6(C)CC[C@H](OC(=O)/C=C\C(=O)O)C(C)(C)[C@@H]6CC[C@]54C)[C@@H]3C2)CC1 [Compound 4l] | 6.3% | 25.9% | 31.7% | – | – | – | – |
| CC1(C)[C@@H](OCC(=O)O)CC[C@]2(C)[C@H]3CC=C4[C@@H]5C[C@@](C)(C(=O)O)CC[C@]5(C)CC[C@@]4(C)[C@]3(C)CC[C@@H]12 [Compound 6, 3β-(carboxymethoxy)-18β-olean-12-en-30-oic acid disodium salt] | – | 7.2% | 42.5% | – | – | – | 59.8% |
| CC(C)=CCCC(C)=CCCC(C)=CCCC(C)=CCCC(C)=CCCC(C)=CCCC(C)=CCCC(C)=CCCC(C)=CCCC(C)=CCSCCNC(=O)C1(C)CCC2(C)CCC3(C)C(=CCC4C5(C)CCC(OC(=O)C=CC(=O)O)C(C)(C)C5CCC43C)C2C1 (stereo not shown) [Compound 4e] | 50% | 44.7% | 53.5% | 21.3% | -9.5% | -34.7% | 60.5% |
| CC(C)=CCCC(C)=CCSCCNC(=O)[C@@]1(C)CC[C@]2(C)CC[C@]3(C)C(=CC[C@@H]4[C@@]5(C)CC[C@H](OC(=O)/C=C\C(=O)O)C(C)(C)[C@@H]5CC[C@]43C)[C@@H]2C1 [Compound 4a, N-[2-(3,7-Dimethyl-2,6-octadien-1-ylthio)ethyl]-3β-(3-carboxy-cis-propenoyloxy)-18β-olean-12-en-30-amide sodium salt] | – | 21.1% | 58.2% | – | – | – | 73.1% |
| CC(C)=CCCC(C)=CCCC(C)=CCCC(C)=CCCC(C)=CCCC(C)=CCCC(C)=CCCC(C)=CCCC(C)=CCCC(C)=CCSCCNC(=O)C1(C)CCC2(C)CCC3(C)C(=CC(=O)C4C5(C)CCC(OC(=O)C=CC(=O)O)C(C)(C)C5CCC43C)C2C1 (stereo not shown) [Compound 4k] | 48.5% | 45.5% | 43.6% | 58.7% | 10.9% | 14.3% | 56.4% |
| CC(C)=CCCC(C)=CCCC(C)=CCSCCNC(=O)[C@@]1(C)CC[C@]2(C)CC[C@]3(C)C(=CC[C@@H]4[C@@]5(C)CC[C@H](OC(=O)/C=C\C(=O)O)C(C)(C)[C@@H]5CC[C@]43C)[C@@H]2C1 [Compound 4b] | – | 51% | 62.6% | – | – | – | 60.5% |
| COc1ccccc1N1CCN(C(=O)[C@@]2(C)CC[C@]3(C)CC[C@]4(C)C(=CC[C@@H]5[C@@]6(C)CC[C@H](OC(=O)/C=C\C(=O)O)C(C)(C)[C@@H]6CC[C@]54C)[C@@H]3C2)CC1 [Compound 4i] | – | 24.4% | 61.4% | – | – | – | 76.5% |
| CC(C)=CCCC(C)=CCCC(C)=CCCC(C)=CCSCCNC(=O)[C@@]1(C)CC[C@]2(C)CC[C@]3(C)C(=CC[C@@H]4[C@@]5(C)CC[C@H](OC(=O)/C=C\C(=O)O)C(C)(C)[C@@H]5CC[C@]43C)[C@@H]2C1 [Compound 4c] | 33.3% | 30.5% | 46.8% | 43.3% | 66.1% | 48.9% | 61% |
| CC(=CCSCCNC(=O)[C@@]1(C)CC[C@]2(C)CC[C@]3(C)C(=CC[C@@H]4[C@@]5(C)CC[C@H](OC(=O)/C=C\C(=O)O)C(C)(C)[C@@H]5CC[C@]43C)[C@@H]2C1)CCCC(C)CCCC(C)CCCC(C)C (stereo partly shown) [Compound 4f] | – | 16.5% | 4.3% | – | – | – | 34.5% |
| CC1(C)[C@@H](OCCC(=O)O)CC[C@]2(C)[C@H]3CC=C4[C@@H]5C[C@@](C)(C(=O)O)CC[C@]5(C)CC[C@@]4(C)[C@]3(C)CC[C@@H]12 [Compound 9, 3β-(2-Carboxyethoxy)-18β-olean-12-en-30-oic acid disodium salt] | – | -0.7% | 11.8% | – | – | – | 26.1% |
| COc1ccccc1N1CCN(C(=O)[C@@]2(C)CC[C@]3(C)CC[C@]4(C)C(=CC[C@@H]5[C@@]6(C)CC[C@H](OC(=O)CCC(=O)O)C(C)(C)[C@@H]6CC[C@]54C)[C@@H]3C2)CC1 [Compound 4m, sodium salt] | – | 9.5% | 26.5% | – | – | – | 23.2% |
